Data as given in patent publication US8211883B2, “Topical delivery of phthalocyanines” (priority 2004, dated 2012).

Tests used:
[1] = tested on: human skin keratome biopsies; assay: Penetration of topically applied PcIV and salts into human skin, confocal fluorescence microscopy; assay type: in vitro ADME; conditions: for laser transmission at which maximum fluorescence was detectable: fluorescence inversely proportional to laser transmission, listed as PcIV
Method: Human skin absorption of PcIV was analyzed by fluorescence confocal microscopy. PcIV fluorescence, upon activation with a HeNe laser at 633 nm, was visualized using a 650 long pass filter. Briefly, 0.4 mm thick human keratomes were removed from the gluteal region of healthy volunteers and divided into 1.5 cm×1.5 cm squares of skin. Upon application of PcIV to the epidermis in a vehicle of ethanol and propylene glycol, visualization of penetration of PcIV was achieved by fluorescence. Pc 4 was then prepared as PcIV-pyruvate and PcIV-HCl and applied in the same vehicle as Pc 4 to the epidermis. Three concentrations, namely, 0.1 mg/mL, 0.05 mg/mL, and 0.01 mg/mL were tested per PcIV formulation. Skin was incubated at 37° C. for 1, 2, and 4 hours, along with vehicle controls. […] Maximum PcIV fluorescence was detectable using laser transmission of 3% for the 0.1 mg/mL and 30% for the 0.01 mg/mL. Both PcIV.pyruvate and PcIV.HCl however could be visualized with a laser transmission of 2-3% for the 0.1 mg/mL and 7-9% for the 0.01 mg/mL concentrations.
The ability of PcIV and the newly prepared PcIV salts (HCl and pyruvate) to penetrate into the epidermis of keratome derived biopsies was examined. The time course of penetrance as well as the effect of dose of the PcIV compounds were evaluated. PcIV and the PcIV.HCl and PcIV.pyruvate salts were resuspended in ethanol (100%, 1 part PcIV, 499 parts ethanol) and then diluted to final concentrations in a 30% Propylene Glycol 70% Ethanol mixture.
Keratome biopsies of normal skin were obtained from normal volunteers after written consent according to UHHS IRB protocol # 05-95-03. To date, seven experiments have been performed. The range of age for volunteers was 20-40 yrs. Individuals represented Fitzpatrick skin types between I-III. Skin biopsies were held in PBS following the keratome procedure until processed for PcIV Application (less than 1 hr). The keratome skin samples (1.5 cm^2) were overlayed onto sterile gauze in 80 mm tissue culture petri dishes epidermal side down. PcIV compounds were then applied to the corners of the sterile gauze and allowed to “wick” through the gauze and contact the epidermis of the skin for the indicated times. Following the incubation, the tissue was removed from the gauze and washed three times in phosphate buffered saline and held, in PBS, until analysis by confocal microscopy. Confocal images were acquired using a 20×N.A. 0.5 water immersion objective on a Zeiss 510 confocal microscope. PcIV fluorescence was elicited using a 633 nm wavelength for excitation, and collected with a 633 nm dichroic mirror and 650 nm long-pass filter.

[2] = tested on: chemically-induced benign skin papillomas; assay: PDT of chemically induced skin tumors; assay type: in vivo, SENCAR mice; conditions: 0.5 and 1.0 mg/kg i.p. in DPPC liposomes
Method: 6-week-old female SENCAR mice received a single topical application of 5 μg DMBA in 0.2 mL acetone on the dorsal skin as tumor initiator. One week later, the animals were started on twice-weekly topical applications of 1 μg TPA in 0.2 mL acetone as tumor promoter. All of the animals developed tumors at 12 weeks. Mice that developed 4-5 tumors per animal averaging 5-8 mm in diameter and 2-5 mm in thickness were used. Pc IV, entrapped in DPPC liposomes was administered intraperitoneally at doses of either 0.5 or 1.0 mg/kg and 24 hrs later the tumor area was illuminated with light from an argon pumped dye laser tuned at 675 nm for a total light dose of 135 j/cm^2 (75 mW/cm^2). All possible controls were included; either the animals were untreated, treated only with laser light or treated only with Pc IV alone.

[3] = tested on: Chinese hamster V79-379 lung fibroblasts; assay: Growth delay of V79 cultures after phthalocyanine and red light; assay type: cell-based; conditions: V79 cells, 0.5 μM, 18 hours, 12 kJ/m^2 red light; three day observation
Method: At the time of light exposure, there were approximately 1.5×10^5 cells per 25 cm^2 flask. Following irradiation, the HBSS was replaced by 10 mL of fresh complete growth medium, and the cultures were returned to the 37° C. incubator. At various times before and after irradiation, duplicate cultures were trypsinized and counted. Controls included untreated cells and cells treated with light alone or drug alone. In addition, in each experiment, the drug to be tested was compared to a standard treatment, i.e. 1 μM AlPcCl for 18 hours followed by 12 kJ/m^2 light.
The inhibition of V79 culture growth was measured during a three day period following red light irradiation (12 kJ/m^2) of phthalocyanine-pretreated cells. With each of the active compounds, as well as with AlPcCl, there was an initial decrease in cell density, as dead cells became detached from the monolayer. Thereafter, the cell number per flask increased, as living cells grew and divided. The time for the cell density to recover to the level at the time of light exposure was considered the growth delay. […] The ratio of the growth delay for the test photosensitizer and the growth delay for AlPcCl measured in the same experiment is recorded in Table 1. There was less inhibition of culture growth when cells were exposed to compounds III, V, or VI as expected from the poor cellular uptake of these drugs.

## CN(C)CCC[Si](C)(C)O[Si]1(O)n2c3c4ccccc4c2N=C2N=C(N=c4c5ccccc5c(n41)=NC1=NC(=N3)c3ccccc31)c1ccccc12 (centres unmarked) [Compound IV, HOSiPcOSi(CH3)2(CH2)3N(CH3)2]
[1]; 0.01 mg/mL in ethanol and propylene glycol
  laser transmission at which maximum fluorescence was detectable: 30%
[1]; 0.1 mg/mL in ethanol and propylene glycol
  laser transmission at which maximum fluorescence was detectable: 3%
[1]; 0.01-0.1 mg/mL, 1, 2 and 4 hours at 37° C.
  penetration into skin: successfully penetrated the skin to the basal layer in a dose dependent fashion
[1]; propylene glycol vehicle
  lowest concentration tested at which penetration is demonstrated: 0.01 mg/mL
[1]; propylene glycol/ethanol vehicle
  time to effective penetration through intact human stratum corneum: within one hour
[2]; 675 nm 135 j/cm^2 24 hrs later
  tumor volume after PDT: eventually decreased to 0 volume
[2]; length of the study 34 days
  tumor return: did not return for the length of the study
[3]
  Growth Delay (12 kj/m^2), Efficiency Relative to 1 μM (AlPcCl): >3
